Each structure is given as a SMILES string.

Test [1] in a line: Antimigratory activity against human L3.6p1 cells at 1 uM after 24 hrs in presence of amine oxidase inhibitor aminoguanidine by scratch assay relative to control. Type of test: functional. The note with it: L3.6p1, 24 h.
A short description of test [2]: Selectivity ratio of IC50 for CHO-MG cells to IC50 for PTS in CHO cells. Set-up: species or system Cricetulus griseus.
For test [3], the species on record is Mus musculus. As to the kind of experiment: Increase in SGMS activity in mouse PancO2 cell lysates assessed as induction of NBD-sphingomyelin production at 1 uM using C12-NBD-ceramide substrate after 72 hrs by TLC relative to control.
Test [4] is filed under the species Mus musculus. As to the kind of experiment: Increase in SGMS activity in mouse PancO2 cell lysates assessed as induction of NBD-sphingomyelin production at 0.5 uM using C12-NBD-ceramide substrate after 72 hrs by TLC relative to control.
A short description of test [5]: Modulation of sphingomyelin pool in human L3.6p1 cells assessed as N17:0 level per mg protein at 500 nM after 48 hrs (reference value: 0.05 +/- 0.01 nmol). Format: functional.
The nature of test [6]: Modulation of sphingomyelin pool in human L3.6p1 cells assessed as N18:0 level per mg protein at 500 nM after 48 hrs (reference value: 0.19 +/- 0.01 nmol). Type of test: functional.
The nature of test [7]: Modulation of sphingomyelin pool in human L3.6p1 cells assessed as N21:0 level per mg protein at 500 nM after 48 hrs (reference value: 0.03 nmol). Format: functional.
Test [8] in a line: Modulation of sphingomyelin pool in human L3.6p1 cells assessed as N19:0 level per mg protein at 500 nM after 48 hrs (reference value: 0.01 nmol). Format: functional.
Test [9] is described as follows: Modulation of sphingomyelin pool in human L3.6p1 cells assessed as N15:0 level per mg protein at 500 nM after 48 hrs (reference value: 0.12 nmol). Type of test: functional.
A short description of test [10]: Modulation of sphingomyelin pool in human L3.6p1 cells assessed as N24:2 level per mg protein at 500 nM after 48 hrs (reference value: 0.30 +/- 0.01 nmol). Type of test: functional.
A short description of test [11]: Modulation of sphingomyelin pool in human L3.6p1 cells assessed as N20:1 level per mg protein at 500 nM after 48 hrs (reference value: 0.02 nmol). Format: functional.
Test [12] is described as follows: Modulation of sphingomyelin pool in human L3.6p1 cells assessed as N23:0 level per mg protein at 500 nM after 48 hrs (reference value: 0.07 nmol). Type of test: functional.
Test [13] in a line: Modulation of sphingomyelin pool in human L3.6p1 cells assessed as N20:0 level per mg protein at 500 nM after 48 hrs (reference value: 0.06 +/- 0.01 nmol). Type of test: functional.
Test [14] can be described thus: Modulation of sphingomyelin pool in human L3.6p1 cells assessed as N26:1 level per mg protein at 500 nM after 48 hrs (reference value: 0.02 nmol). Format: functional.
Test [15] can be described thus: Modulation of sphingomyelin pool in human L3.6p1 cells assessed as N22:2 level per mg protein at 500 nM after 48 hrs (reference value: 0.01 nmol). Type of test: functional.
Test [16] is described as follows: Antiproliferative activity against human L3.6p1 cells after 48 hrs in presence of amine oxidase inhibitor aminoguanidine by MTS assay. Type of test: functional, cell-based. The note with it: for IC50: Homo sapiens, L3.6p1, 48 h. For orientation: Formazan colour is commonly taken as a measure of viable cells.
A short description of test [17]: Modulation of ceramide pool in human L3.6p1 cells assessed as N24:0 level per mg protein at 500 nM after 48 hrs (reference value: 0.16 +/- 0.04 nmol). Type of test: functional.
Test [18] is described as follows: Modulation of sphingomyelin pool in human L3.6p1 cells assessed as N25:0 level per mg protein at 500 nM after 48 hrs (reference value: 0.01 nmol). Format: functional.
Test [19] is described as follows: Modulation of ceramide pool in human L3.6p1 cells assessed as N16:0 level per mg protein at 500 nM after 48 hrs (reference value: 0.08 +/- 0.01 nmol). Type of test: functional.
Test [20] is described as follows: Modulation of sphingomyelin pool in human L3.6p1 cells assessed as N16:0 level per mg protein at 500 nM after 48 hrs (reference value: 2.60 +/- 0.06 nmol). Type of test: functional.
Test [21] is described as follows: Modulation of sphingomyelin pool in human L3.6p1 cells assessed as total sphingomyelin level per mg protein at 500 nM after 48 hrs (reference value: 5.91 +/- 0.11 nmol). Type of test: functional.
Test [22] can be described thus: Modulation of sphingomyelin pool in human L3.6p1 cells assessed as N23:2 level per mg protein at 500 nM after 48 hrs (reference value: 0.01 nmol). Format: functional.
The nature of test [23]: Modulation of sphingomyelin pool in human L3.6p1 cells assessed as N14:0 level per mg protein at 500 nM after 48 hrs (reference value: 0.13 +/- 0.01 nmol). Format: functional.
Test [24] can be described thus: Modulation of ceramide pool in human L3.6p1 cells assessed as total ceramide level per mg protein at 500 nM after 48 hrs (reference value: 0.62 +/- 0.10 nmol). Type of test: functional.
Test [25] can be described thus: Modulation of sphingomyelin pool in human L3.6p1 cells assessed as N25:1 level per mg protein at 500 nM after 48 hrs (reference value: 0.02 +/- 0.01 nmol). Format: functional.
Test [26] can be described thus: Modulation of sphingomyelin pool in human L3.6p1 cells assessed as N23:1 level per mg protein at 500 nM after 48 hrs (reference value: 0.10 nmol). Format: functional.
Test [27] in a line: Modulation of sphingomyelin pool in human L3.6p1 cells assessed as N22:0 level per mg protein at 500 nM after 48 hrs (reference value: 0.23 +/- 0.01 nmol). Type of test: functional.
Test [28] can be described thus: Modulation of sphingomyelin pool in human L3.6p1 cells assessed as N24:1 level per mg protein at 500 nM after 48 hrs (reference value: 1.07 +/- 0.03 nmol). Format: functional.
The nature of test [29]: Modulation of sphingomyelin pool in human L3.6p1 cells assessed as N22:1 level per mg protein at 500 nM after 48 hrs (reference value: 0.17 +/- 0.01 nmol). Type of test: functional.
A short description of test [30]: Modulation of sphingomyelin pool in human L3.6p1 cells assessed as N24:0 level per mg protein at 500 nM after 48 hrs (reference value: 0.32 +/- 0.01 nmol). Format: functional.
The nature of test [31]: Antimigratory activity against human L3.6p1 cells at 0.5 uM after 24 hrs in presence of amine oxidase inhibitor aminoguanidine by scratch assay relative to control. Type of test: functional. The note with it: L3.6p1, 24 h.
A short description of test [32]: Modulation of sphingomyelin pool in human L3.6p1 cells assessed as N18:1 level per mg protein at 500 nM after 48 hrs (reference value: 0.07 nmol). Type of test: functional.
The nature of test [33]: Modulation of sphingomyelin pool in human L3.6p1 cells assessed as N16:1 level per mg protein at 500 nM after 48 hrs (reference value: 0.28 +/- 0.01 nmol). Type of test: functional.
Test [34] is described as follows: Modulation of ceramide pool in human L3.6p1 cells assessed as N24:1 level per mg protein at 500 nM after 48 hrs (reference value: 0.37 +/- 0.06 nmol). Format: functional.
The next test has as its system CHO-MG. Briefly: Cytotoxicity against CHO-MG cells assessed as reduction in cell viability after 48 hrs in presence of aminoguanidine by MTS assay. Format: cell-based. The note with it: Cricetulus griseus.
A short description of test [35]: Substrate activity at PTS in CHO cells assessed as reduction in cell viability after 48 hrs in presence of aminoguanidine by MTS assay. Format: cell-based. The note with it: Cricetulus griseus.

With `NCCNCCNCCN` [TRIENTINE], in test [1], the inhibition (commonly the drop in the measured response relative to a control, in per cent) at 1 µM came to 0%.
Regarding `Cl.Cl.Cl.NCCCNCCCNC1CCCCCCCCCCCCCC1`, the “Ratio IC50” value in [2] was 2.1. Also, the Activity was determined as 82% in the test filed under Mus musculus [3] and 75% in the test listed under Mus musculus [4].
Regarding `Cl.Cl.Cl.NCCCNCCCN1CCCCCCCCCCCCCC1`, the Activity in test [5] stood at 0.06 nmol; in [6] it was 0.32 nmol; in test [7], 0.05 nmol; in test [8], 0.01 nmol; in [9], 0.14 nmol; in [10], 0.41 nmol. Further, the Activity in test [11] came to 0.03 nmol; in test [12], 0.1 nmol; in test [13], 0.1 nmol; in test [14], 0.04 nmol; in [15], 0.02 nmol; in the test listed under Mus musculus [3], 75%. In addition, the Activity in [17] turned out to be 0.2 nmol; in test [18], 0.03 nmol; in [19], 0.17 nmol; in test [20], 3.26 nmol; in test [21], 7.84 nmol; in [22], 0.01 nmol. In addition, the Activity is listed as 0.14 nmol in [23]; 0.89 nmol in test [24]; 0.03 nmol in [25]; 0.14 nmol in test [26]; 0.35 nmol in [27]; 1.49 nmol in test [28]. For the same compound, the Activity in test [29] is 0.27 nmol; in test [30], 0.39 nmol; in test [32], 0.11 nmol; in test [33], 0.33 nmol; in [34], 0.51 nmol; in the test listed under Mus musculus [4], 89%. For the same compound, the “Ratio IC50” value in test [2] was determined as 1. For the same compound, the inhibition at 1 µM in test [1] stood at 39.8%. Also, the IC5 in test [16] was determined as 0.6 µM. Besides, the IC50 – broadly, the concentration that inhibits the measured activity by half – in test [16] came to 990 nM. In test [31], the inhibition at 0.5 µM worked out at 20.6%.
`Cl.Cl.Cl.Cl.NCCNCCNCCNCC1CCCCCCCCCCCCCC1`: the Activity in [5] was determined as 0.05 nmol; in test [6] it was 0.24 nmol; in test [7], 0.03 nmol; in test [8] it was 0.01 nmol; in test [9], 0.12 nmol; in test [10], 0.31 nmol. The Activity in test [11] is reported as 0.02 nmol; in [12], 0.08 nmol; in [13], 0.08 nmol; in test [14] it was 0.03 nmol; in test [15], 0.02 nmol; in test [17] it was 0.11 nmol. Besides, the Activity worked out at 0.02 nmol in test [18]; 0.09 nmol in [19]; 2.66 nmol in [20]; 6.25 nmol in test [21]; 0.01 nmol in [22]; 0.13 nmol in test [23]. Also, the Activity turned out to be 0.49 nmol in [24]; 0.02 nmol in test [25]; 0.11 nmol in [26]; 0.28 nmol in test [27]; 1.15 nmol in [28]; 0.19 nmol in test [29]. Further, the Activity in test [30] is given as 0.32 nmol; in test [32], 0.09 nmol; in test [33] it was 0.28 nmol; in test [34], 0.28 nmol. The “Ratio IC50” value in test [2] was determined as 1.1. Further, the inhibition at 1 µM in [1] was found to be 16.8%. Moreover, the IC5 in test [16] was found to be 0.92 µM. In addition, the IC50 in [16] was 1640 nM; in the test with CHO-MG it was 2620 nM; in test [35], 2370 nM. Also, the inhibition at 0.5 µM in test [31] turned out to be 6.1%.
With `NCCNCCN`, the inhibition at 1 µM in [1] is 0%.
As to `Cl.Cl.NCCNCC1CCCCCCCCCCCCCC1`, the “Ratio IC50” value in test [2] came out at 0.9. In [1], the inhibition at 1 µM was determined as 26.2%. In addition, the IC5 in test [16] worked out at 0.6 µM. For the same compound, the half-inhibitory concentration (IC50) in [16] turned out to be 1440 nM; with CHO-MG, 2370 nM; in [35] it was 2660 nM. The inhibition at 0.5 µM in test [31] was found to be 6.2%.
For the compound `Cl.Cl.Cl.NCCNCCNCC1CCCCCCCCCCCCCC1`, the “Ratio IC50” value in [2] turned out to be 1. In [1], the inhibition at 1 µM turned out to be 26.8%. The IC5 in test [16] was determined as 0.6 µM. Also, the IC50 in test [16] came to 1250 nM; with CHO-MG, 2550 nM; in test [35] it was 2480 nM. The inhibition at 0.5 µM in test [31] was 10.2%.
For the compound `Cl.Cl.Cl.NCCCNCCCNCCC1CCCCCCCCCCCCCC1`, the “Ratio IC50” value in test [2] is reported as 1.1. In test [1], the inhibition at 1 µM turned out to be 1.5%. Moreover, the IC5 in [16] is 1.64 µM. For the same compound, the figures for the 50% inhibitory concentration (IC50) (in test [16]; in the test on CHO-MG; in test [35]) were 3340 nM, 2800 nM and 2510 nM, respectively. The inhibition at 0.5 µM in test [31] is -15.5%.
Turning to `Cl.Cl.Cl.NCCCCNCCCCNCc1c2ccccc2cc2ccccc12`, the “Ratio IC50” value in test [2] is on record as 148.
Turning to `Cl.Cl.NCCNCc1c2ccccc2cc2ccccc12`, in test [2], the “Ratio IC50” value turned out to be 5.8. Moreover, in [16], the IC5 was 4.15 µM. The IC50 amounted to 24100 nM in [16], 11300 nM in the test with CHO-MG and 1960 nM in test [35]. Further, in [31], the inhibition at 0.5 µM was 6.2%.

These data come from ChEMBL document CHEMBL4028869, “Synthesis and Bioevaluation of Macrocycle-Polyamine Conjugates as Cell Migration Inhibitors” (J Med Chem, 2017).
